Reference: patent US20210393742A1, “LONG-ACTING INTERLEUKIN-15 RECEPTOR AGONIST IN COMBINATION WITH ANOTHER PHARMACOLOGICALLY ACTIVE AGENT” (Nektar Therapeutics, priority 2018, published 2021)

Legend:
[1] = tested on: STAT5 phosphorylation in KHYG-1 cells; assay: Phosphorylation of STAT5 in KHYG-1 cells (Example 7); format: cell-based, human; details: 10 minutes
Experimental: (§1) KHYG-1 cells were cultured in RPMI-1640 medium supplemented with 20% FBS, 2 mM L-glutamine, and 20 ng/mL IL-2 (Complete growth medium) in a humidified incubator at 37° C. and 5% CO2.
(§2) One day prior to treatment with test compounds, cells were seeded at a density of 500,000 viable cells/ml in Complete growth medium and incubated overnight under normal growth conditions. On the day of the assay, KHYG-1 cells were washed 3 times with DPBS, resuspended in assay medium (RPMI-1640 medium supplemented with 20% FBS, 2 mM L-glutamine), and incubated for 4-5 hours at 37° C., 5% CO2. Cells were adjusted to the appropriate density (8×10^5 cells/mL) in assay medium and 50,000 cells/well were aliquoted into wells of a 96-well plate (View-Plate 96, Perkin-Elmer).
KHYG-1 cells were stimulated with IL-15 or a long-acting IL-15 receptor agonist (mono(mPEG-butanamide)IL-15) followed by incubation at 37° C., 5% CO2 for 10 minutes. Treated cells were lysed on ice.
Detection of phospho-STAT5 protein levels in cell lysates was performed using the Phospho(Tyr694)/Total STAT5a,b Assay Whole Cell Lysate kit (MSD product #K15163D). Relative light unit (RLU) signal corresponding to phosphor-STAT5 was collected using a Sector® Imager 2400 plate reader (MSD) with the results provided in FIG. 10A.

KHYG-1 cells = assay: KHYG-1 cell proliferation, CellTiter-Glo 2.0 (Example 7); format: cell-based, human; details: 48 hours
Experimental: as §1, §2
Stimulation of KHYG-1 cells was initiated by the transfer of IL-15 or a long-acting IL-15 receptor agonist (mono(mPEG-butanamide)IL-15) to duplicate wells containing cells, followed by 48 hours incubation at 37° C., 5% CO2.
Cell growth in each well was measured by monitoring ATP levels using CellTiter-Glo 2.0, following the manufacturer's instructions. The effect of the long-acting IL-15 receptor agonist on KHYG-1 cell proliferation was compared to IL-15 following 48-hour treatment using CellTiter-Glo 2.0 with the results shown in FIG. 10B.

FaDu cells = assay: ADCC of cetuximab-coated FaDu cells by primed human NK cells (Example 20); format: cell-based; details: NK cells primed with 300 ng/mL overnight; cetuximab 300 ng/mL; E:T 10:1, 3 hours
Experimental: Human NK cells were magnetically sorted from normal donor PBMCs using negative selection. NK cells were seeded in a 96-well U-bottom plate at a density of 400,000 cells/well. NK cells were stimulated with mono(methoxyPEG-N-butanamide)40 kD interleukin-15 (Compound 1) (300 ng/mL) (+) or left unstimulated (−) in complete RPMI-1640 media supplemented with 10% fetal bovine serum (FBS) and 1% antibiotic/antimycotic overnight at 37° C. in 5% CO2.
The epithelial/pharyngeal head and neck human FaDu cells (ATCC #HTB-43) were cultured in minimal eagle's essential media (EMEM; ATCC+30-2003) supplemented with 10% fetal bovine serum (FBS) and 1% antibiotic/antimycotic at 37° C. in 5% CO2. FaDu cells were subcultured by incubating in 0.25% Trypsin-0.53 mM EDTA for 5 min at 37° C., washed in sterile PBS, resuspended in culture media, counted, and co-cultured with the NK cells using an effector:target (E:T) of 10:1. […] Following incubation, cells were washed in flow staining buffer, Fc-blocked for 15 min at 4° C., and surface-stained (CD45, CD56, CD3-fluorescently conjugated antibodies) for 20 min at 4° C. in the dark. The cells were washed in PBS and incubated in 7-aminoactinomycin (7-AAD) viability stain for 30 minutes at 4° C. before acquiring for flow cytometric analysis using a Fortessa (BD). […]

mono(methoxyPEG-N-butanamide)40 kD interleukin-15 [Conjugate 1]
phosphorylation of STAT5 [1]: dose-dependent phosphorylation of STAT5 | potency in STAT5 phosphorylation, fold less than IL-15 [1]: ~3 fold | maximal proliferative response (KHYG-1 cells): comparable to the response produced by IL-15 | ADCC, % 7-AAD+CD45- target cells (FaDu cells): enhance ADCC of cetuximab-coated human solid tumor cells
